Entries after “also recorded” stand apart in the source; their conditions may differ. Read-outs that look alike come from different tables or passages of the source.
Experiments:
[1] = test system: NTox released by Aβ1-42-stimulated microglia (neuron killing); assay: cells; type: cell-based, rat
Text: . Briefly, hippocampal cells obtained from embryonic stage 18 rat fetuses were dispersed mechanically in the presence of 0.125% trypsin and plated onto poly-L-lysine coated glass coverslips in 24 well plates at 250,000 cells per well (resulting in adhering cell densities of about 1250 cells per mm^2) in chemically-defined N2 culture media containing 5% fetal bovine serum. Gradual reduction of serum began on day 10 in vitro with daily 1:1 volume replacements with chemically-defined media, until a final concentration of 0.6% serum was achieved. […]; see FIG. 18). In order to eliminate microglia, cultures were exposed to saporin (sap; a ribosome-inactivating protein; Davis and Wiley, 1989) coupled to acetylated LDL (ac-LDL) at a concentration of 10 μg/ml for 12 hours. […] Cultures depleted of microglia were then exposed to test substances in the presence or absence of exogenous microglia (100,000 cells per culture). […]. Controls included cultures without saporin-treatment, cultures without test substances, and cultures with test substances but lacking microglia.
(§1) On day 14 of culture, immediately following saporin treatment, test substances were added to the hippocampal cultures. Synthetic peptide were supplied as 1 mM stock solutions in 0.1 M phosphate buffered saline, pH 7.2, stored for at least 1 week at 4° C. before use. After 72 hours incubation, the cultures were fixed in 4% paraformaldehyde at room temperature for 18 hours and immuno-stained by overnight incubation with a mixture of anti-neurofilament antibodies (NF; SMI-311, 1:600; Stemberger Monoclonals, Inc.) plus anti-MAP-2 (Boehringer Mannheim, 184959; 1:600) at 4° C. in the presence of 2% horse serum and 0.3% triton X-100 to delineate both neuronal cell bodies and neurites. Astroglia were visualized using sheep anti-glial fibrillary acidic protein (GFAP, Sigma) as described by Giulian et al., 1989. Finally, to label all cell nuclei, the coverslips were exposed to 0.01% bisbenzimide (Hoechst 33258; Sigma) in PBS, pH 6.9, and rinsed in distilled water and mounted in glycerin. Immuno-labeled cells per field and nuclei per field were scored at 200X magnification using fluorescence microscopy. Data were expressed as % mean survival expressed in terms of parallel untreated control cultures after scoring at least 20 randomly selected fields for each of 3 coverslips.
The procedures described above and by Giulian et al, 1996, provided for the identification of tyramine compounds as therapeutic agents for neurodegenerative diseases or disorders including, for example, Alzheimer's disease. Cells from the brain of fetal rats were grown in tissue cultures. Microglial populations within the cultures were controlled following the method described in Example 5 above. Known amounts of Aβ peptides coupled to microspheres were added to the culture. The Aβ spheres stimulated the microglia to release NTox, which in turn destroyed the neurons. The neurons in the cultures were monitored for survival by immuno-staining.
Generally, drug assays involve the addition of known concentrations of a test agent over a range of concentrations. After 72 hours, the experiment is stopped and the neurons are identified by immuno-staining. The data is expressed as % neuronal survival […]. Dose response curves are then used to estimate Effective Dose50 % (ED50) of neuroprotective agents. […].
In this experiment, about 65% of the neurons were destroyed by the Aβ-stimulated microglia. […] Other tyramine compounds, including tyrosine esters, were neuroprotective (FIG. 30).
Following the methods described herein, numerous compounds were examined to determine their neuroprotective activity. […]

NTox = assay: protection of neurons against isolated NTox applied directly; type: cell-based; conditions: isolated NTox; FIGS. 13, 32
Text: FIG. 32 is a graph showing the specificity of tyramine compounds to NTox. […].
Initial studies to characterize the neuroprotective effect of tyramine compounds employed microglia-neuron co-culture assays in the presence of Aβ or isolated senile plaques. Inhibition of neuron killing in […]--inhibition of microglial activation by Aβ or plaques; inhibition of NTox production and release by microglia; or inhibition of action of NTox upon neurons. […] Effective doses in the low nmolar range show the tyramine compounds to be very potent agents compared with low μmolar range of other neuroprotective drugs under development for neurological disorders.

quinolinic acid (QUIN) = assay: protection of neurons against quinolinic acid; type: cell-based; conditions: QUIN (100 μM in FIG. 13)
Text: FIG. 32 is a graph showing the specificity of tyramine compounds to NTox. […]

rat microglia = assay: binding of Aβ-coupled microspheres to microglia; conditions: 4 hours at 37° C. (72 h in FIG. 23)
microglia = assay: inhibition of SpheresAβ1-42 binding to microglia; design: species or system rat; conditions: for SpheresAβ1-42 binding after enzymatic treatment of microglia: trypsin 5000 units/ml, heparinase 0.01 units/ml, chondroitinase ABC 0.02 units/ml
Method: (§2) Spheresmal-BSA (which bind to scavenger receptors) or SpheresAβ1-42 were incubated with microglia for 4 hours following pre-treatment of cells with trypsin (5000 units/ml at 37° C. for 60 min followed by inactivation with soybean trypsin inhibitor), with heparinase (heparin lyase EC 4.2.2.7; two consecutive treatments each of 0.01 units/ml for 60 min), or with chondroitinase ABC (chondroitin ABC lyase EC 4.3.3.4; two consecutive treatments each of 0.02 units/ml for 60 min). […] Microglia mixed with hippocampal neurons were treated with combinations of β-D-xyloside (1 mm), heparinase (0.02 units/ml), or chondroitinase (0.04 units/ml) and then exposed to plaques.
Each well then received 250,000 SpheresAβ1-42 or Spheresmal-BSA in the presence or absence of Aβ peptides, GAGs, or scavenger receptor ligands. Binding assays were carried out at 37° C. for 4 hours after which coverslips were dipped 10 times in phosphate buffer and fixed with 4% buffered paraformaldehyde. Microsphere adherence to cells was scored at 200 magnification with phase/fluorescence microscopy. Data, expressed as % inhibition of sphere binding, was calculated from total number of spheres per field noted for control cultures receiving spheres only. Values are based upon at least 3 coverslips from 2 independent experiments. […] Washed spheres were resuspended in 0.2 M borate buffer (pH 8.5) in the presence of 300 μg Aβ or 400 μg BSA in 6% DMSO. After overnight mixing at room temperature, the spheres were washed extensively and blocked by 1 M glycine (pH 8.0) for 30 minutes.

[2] = test system: Aβ1-42-stimulated microglia; type: cell-based, rat; conditions: for blocking of Aβ1-42 induced microglial neurotoxicity by peptides: 10 μmoles/liter peptide, 1 μmole/liter Aβ1-42; for IC50: read-out: ED50 (blocking of Aβ1-42 induced neurotoxicity), FIG. 16B
Text: (§3) Briefly, hippocampal cells obtained from embryonic stage 18 rat fetuses were dispersed mechanically in the presence of 0.125% trypsin and plated onto poly-L-lysine coated glass coverslips in 24 well plates at 250,000 cells per well (resulting in adhering cell densities of about 1250 cells per mm^2) in chemically-defined N2 culture media containing 5% fetal bovine serum. Gradual reduction of serum began on day 10 in vitro with daily 1:1 volume replacements with chemically-defined media, until a final concentration of 0.6% serum was achieved. […] In order to eliminate microglia, cultures were exposed to saporin (sap; a ribosome-inactivating protein; Davis and Wiley, 1989) coupled to acetylated LDL (ac-LDL) at a concentration of 10 μg/ml for 12 hours. […] Cultures depleted of microglia were then exposed to test substances in the presence or absence of exogenous microglia (100,000 cells per culture). […] Controls included cultures without saporin-treatment, cultures without test substances, and cultures with test substances but lacking microglia.
as §1

[3] = test system: reactive microglia in rat neocortex; assay: brain inflammatory response after infusion into neocortex of adult rat; type: in vivo; conditions: 0.5 nmoles Aβ1-42, co-infusion of 1.0 nmole peptide; 5 days
human microglia [4] = assay: induction of neuron-killing human microglia; type: cell-based; conditions: 1 μmole/liter synthetic peptides
human microglia [5] = assay: nitrite/nitrate production, human microglia; type: cell-based
Method: Nitrites and nitrates, stable byproducts of nitric oxide synthetase (NOS) served as markers for nitric oxide (NO) synthesis (Ignarro, 1990). […]; for 24 to 72 hours incubated in the presence of neuritic/core plaques or Aβ peptides) were measured by the Griess method set forth by Beckman et al., 1990 against a standard curve ranging from 0.1 to 50.0 μM nitrate.

[6] = type: physicochemical; conditions: chemically defined culture media, 37° C.; Table 2
Text: Solubility of peptides is described for chemicallydefined culture media a […]

[7] = test system: rat microglia / hippocampal neurons; conditions: for induction of neurotoxic microglia / neuron killing: rat microglia, mostly 1 μmole/l
hippocampal neurons = type: cell-based, rat; conditions: absence of microglia
Text: as §3, §1

[8] = test system: plaque-stimulated microglia; assay: blocking of plaque-induced microglial neurotoxicity; type: cell-based, rat; conditions: FIG. 16C
scavenger receptor = assay: inhibition of Spheresmal-BSA binding to microglia; design: species or system rat
Method: as §2
Each well then received 250,000 SpheresAβ1-42 or Spheresmal-BSA in the presence or absence of Aβ peptides, GAGs, or scavenger receptor ligands. Binding assays were carried out at 37° C. for 4 hours after which coverslips were dipped 10 times in phosphate buffer and fixed with 4% buffered paraformaldehyde. Microsphere adherence to cells was scored at 200 magnification with phase/fluorescence microscopy. Data, expressed as % inhibition of sphere binding, was calculated from total number of spheres per field noted for control cultures receiving spheres only. Values are based upon at least 3 coverslips from 2 independent experiments. […]

NCCc1ccc(O)cc1 [tyramine]
protective effect ([1]; 10 μM, 72 hours, FIG. 30): completely prevented neuron death | neuroprotective activity (structure/function) ([1]; Example 14): enhance neuroprotective effects | EC50 ([1]; Rattus norvegicus, Aβ-stimulated microglia, 72 h, FIG. 31, read-out: ED50 (neuroprotection)): ~200 nM | inhibition of killing action of NTox applied to neurons (NTox): prevented neuronal injury | protection against quinolinic acid (quinolinic acid (QUIN)): did not occur with quinolinic acid

Aβ1-5: Aβ peptide residues 1-5 (DAEFR; Amyloid-beta protein 42; UniProt P05067 672-676, looked up, fragment)
binding of peptide-coupled microspheres to microglia (rat microglia): did not | inhibition of SpheresAβ1-42 binding by peptides (microglia; 10 μmoles/l, 4 hours, 37° C.): did not | blocking of Aβ1-42 induced microglial neurotoxicity by peptides [2]: did not | local brain inflammatory response [3]: did not alter inflammation

Aβ1-40: synthetic human β-amyloid peptide 1-40
induction of neurotoxic human microglia (human microglia [4]): very potent inducers of neurotoxic human microglia; also recorded: stimulated release of neurotoxin from human microglia | binding of peptide-coupled microspheres to microglia (rat microglia): marked glial binding | release of nitrate or nitrite, human microglia (human microglia [5]): did not bring about release of nitrate or nitrites | Solubility [6]: moderately soluble | neuron killing, microglia separated from neurons (no contact) [7]: stimulated microglia to destroy neurons | ED50 (neuron killing via microglia) ([7]; 500 microglia per mm^2): ~80 nmol/L | induction of neurotoxic microglia / neuron killing ([7]; listed as A1-40): neuron killing could be induced | killing of neurons ([7]; rat, hippocampal neurons, 72 h, 1 µM): 70-80%

Aβ1-43: small Aβ peptide (as printed)
direct neurotoxicity without microglia (hippocampal neurons): did not produce neurotoxicity | induction of neurotoxic microglia / neuron killing [7]: did not produce neurotoxicity

Aβ13-16: residues His13, His14, Gln15, and Lys16 (the HHQK domain within Aβ) (Amyloid-beta protein 42; UniProt P05067 684-687, looked up, fragment)
blocking of Aβ1-42 induced microglial neurotoxicity by peptides [2]: blocked neurotoxin production | blocking of Aβ1-42 induced microglial neurotoxicity by peptides ([2]; listed as HHQK): one of the most potent plaque suppressor peptides identified | IC50 [2]: ~30 nM | blocking of plaque-induced microglial toxicity by peptides [8]: blocked plaque-induced toxicity in vitro | local brain inflammatory response [3]: blocks the interaction of Aβ1-42 with microglia in vivo and reduces the local brain inflammatory response; also recorded: markedly reduced

Aβ13-20: Aβ peptide residues 13-20 (HHQKLVFF; Amyloid-beta protein 42; UniProt P05067 684-691, looked up, fragment)
IC50 [2]: 250 nM | blocking of plaque-induced microglial toxicity by peptides [8]: blocked plaque-induced toxicity in vitro

dextran sulfate
inhibition of SpheresAβ1-42 binding by GAGs and scavenger receptor ligands (microglia; heparin sulfate 50 μg/ml, dextran sulfate 500 μg/ml, ac-LDL 200 μg/ml): only heparin sulfate blocked; also recorded: not similar compounds | inhibition of Spheresmal-BSA binding by ligands (scavenger receptor; dextran sulfate 500 μg/ml, ac-LDL 200 μg/ml, Aβ1-16 10 μmole/l): blocked

trypsin
SpheresAβ1-42 binding after enzymatic treatment of microglia (microglia): reduced by trypsin | SpheresAβ1-42 binding after enzymatic treatment of microglia (microglia; listed as trypsinization): markedly reduced | Spheresmal-BSA binding after enzymatic treatment of microglia (scavenger receptor; trypsin 5000 units/ml, chondroitinase ABC 0.02 units/ml): reduced by trypsin
